{
  "source": "paper PMC7125129",
  "about": "“Anti-HIV agent azidothymidine decreases Tet(X)-mediated bacterial resistance to tigecycline in Escherichia coli” (Communications Biology, 2020)",
  "key": {"[1]": {"target": "T1, Tet(X4) (Escherichia coli, UniProt A0A3T0V9Y5)", "T1 construct": "gene mtr-1", "test": "purified enzyme inhibition assay, tigecycline absorbance at […] nm", "assay_type": "biochemical"}, "[2]": {"system": "T2, E. brevis S1-3 (tet(X3))", "T2 construct": "S1-3 (tet(X3))", "test": "organism not typed", "set-up": "Broth microdilution MIC, bacterial growth inhibition in Mueller-Hinton broth", "settings": "read-out: MIC (μg/mL)", "experimental": "(§1) Bacterial and chemical reagents Sequential culturing of E. coli ATCC 25922 in the presence of subinhibitory levels of tigecycline, azidothymidine, or the combination. After 24 h co-incubation, any cultures that grew at higher than the MIC levels were passaged on drug free MHA plates and the MIC was then determined by broth microdilution. This serial passaging was repeated daily for 30 days. To further evaluate the synergistic activity between tigecycline and three candidates, standard checkerboard microdilution in E. coli B3-1 was performed. […] Thus, we next focused our insights on the potentiation potency of azidothymidine with tigecycline. We first evaluated the stability of the azidothymidine-tigecycline combination in the presence of salt ions and serum, which are two critical factors that affect the in vivo efficacy of drugs[20],[21]. […] However, addition of divalent cations such as Ca^2+ and Mg^2+ (10 mM) abolished its potentiation activity, but EDTA could augment the synergistic effect (Supplementary Fig. 2). Considering that divalent cations and EDTA are associated with membrane permeability, we speculated that entrance of two drugs into bacteria contribute to their activity. Next, we assessed the potency of this combination in a panel of clinical isolates from animals and environmental samples (Supplementary Tables 2 and 3). […]"}, "[3]": {"system": "T3, E. fergusonnii 1C4-6 (tet(X4))", "T3 construct": "1C4-6 (tet(X4))", "test": "organism not typed", "set-up": "Broth microdilution MIC, bacterial growth inhibition in Mueller-Hinton broth", "settings": "read-out: MIC (μg/mL)", "experimental": "as §1"}, "[4]": {"system": "T4, E. coli B2 (NDM-5 + MCR-1)", "T4 construct": "B2", "test": "microbe, parasite or virus in culture", "set-up": "Broth microdilution MIC, bacterial growth inhibition in Mueller-Hinton broth", "settings": "Escherichia coli, read-out: MIC (μg/mL)", "experimental": "(§2) Bacterial and chemical reagents Sequential culturing of E. coli ATCC 25922 in the presence of subinhibitory levels of tigecycline, azidothymidine, or the combination. After 24 h co-incubation, any cultures that grew at higher than the MIC levels were passaged on drug free MHA plates and the MIC was then determined by broth microdilution. This serial passaging was repeated daily for 30 days. To further evaluate the synergistic activity between tigecycline and three candidates, standard checkerboard microdilution in E. coli B3-1 was performed. […] Thus, we next focused our insights on the potentiation potency of azidothymidine with tigecycline. We first evaluated the stability of the azidothymidine-tigecycline combination in the presence of salt ions and serum, which are two critical factors that affect the in vivo efficacy of drugs[20],[21]. […] However, addition of divalent cations such as Ca^2+ and Mg^2+ (10 mM) abolished its potentiation activity, but EDTA could augment the synergistic effect (Supplementary Fig. 2). Considering that divalent cations and EDTA are associated with membrane permeability, we speculated that entrance of two drugs into bacteria contribute to their activity. Next, we assessed the potency of this combination in a panel of clinical isolates from animals and environmental samples (Supplementary Tables 2 and 3). […] To investigate whether this potentiation is also applicable in Tet(X)-negative bacteria, standard ATCC sensitive bacteria and other E. coli isolates with MIC values of ≤1 μg mL^−1 for tigecycline were tested."}, "[5]": {"system": "T5, E. coli B3-1 (tet(X4))", "T5 construct": "B3-1", "test": "microbe, parasite or virus in culture", "set-up": "Broth microdilution MIC, bacterial growth inhibition in Mueller-Hinton broth", "settings": "Escherichia coli", "experimental": "as §2"}, "[6]": {"system": "T6, E. coli B8-1 (tet(X4))", "T6 construct": "B8-1", "test": "microbe, parasite or virus in culture", "set-up": "Broth microdilution MIC, bacterial growth inhibition in Mueller-Hinton broth", "settings": "Escherichia coli, read-out: MIC (μg/mL)", "experimental": "as §2"}, "[7]": {"system": "T7, E. coli B9-1 (tet(X4))", "T7 construct": "B9-1", "test": "microbe, parasite or virus in culture", "set-up": "Broth microdilution MIC, bacterial growth inhibition in Mueller-Hinton broth", "settings": "Escherichia coli, read-out: MIC (μg/mL)", "experimental": "as §2"}, "[8]": {"system": "T8, E. coli C3 (NDM-1)", "T8 construct": "C3", "test": "microbe, parasite or virus in culture", "set-up": "Broth microdilution MIC, bacterial growth inhibition in Mueller-Hinton broth", "settings": "Escherichia coli, read-out: MIC (μg/mL)", "experimental": "as §2"}, "[9]": {"system": "T9, E. coli G6 (NDM-5)", "T9 construct": "G6", "test": "microbe, parasite or virus in culture", "set-up": "Broth microdilution MIC, bacterial growth inhibition in Mueller-Hinton broth", "settings": "Escherichia coli, read-out: MIC (μg/mL)", "experimental": "as §2"}, "[10]": {"system": "T10, E. coli P10-1 (tet(X4))", "T10 construct": "P10-1", "test": "microbe, parasite or virus in culture", "set-up": "Broth microdilution MIC, bacterial growth inhibition in Mueller-Hinton broth", "settings": "Escherichia coli, read-out: MIC (μg/mL)", "experimental": "as §2"}, "[11]": {"system": "T11, E. coli P3-1 (tet(X4))", "T11 construct": "P3-1", "test": "microbe, parasite or virus in culture", "set-up": "Broth microdilution MIC, bacterial growth inhibition in Mueller-Hinton broth", "settings": "Escherichia coli, read-out: MIC (μg/mL)", "experimental": "as §2"}, "[12]": {"system": "T12, E. coli W7-1 (tet(X4))", "T12 construct": "W7-1", "test": "microbe, parasite or virus in culture", "set-up": "Broth microdilution MIC, bacterial growth inhibition in Mueller-Hinton broth", "settings": "Escherichia coli, read-out: MIC (μg/mL)", "experimental": "as §2"}, "[13]": {"system": "T13, Enterococcus faecalis VRE A4", "T13 construct": "VRE A4", "test": "microbe, parasite or virus in culture", "set-up": "Broth microdilution MIC, bacterial growth inhibition in Mueller-Hinton broth", "settings": "read-out: MIC (μg/mL)", "experimental": "as §2"}, "[14]": {"system": "T14, Escherichia coli ATCC 25922", "T14 construct": "ATCC 25922", "test": "microbe, parasite or virus in culture", "set-up": "Broth microdilution MIC, bacterial growth inhibition in Mueller-Hinton broth", "settings": "Escherichia coli, ATCC25922, read-out: MIC (μg/mL)", "experimental": "as §2"}, "[15]": {"system": "T15, Proteus penneri 2F1-3 (tet(X4))", "T15 construct": "2F1-3 (tet(X4))", "test": "microbe, parasite or virus in culture", "set-up": "Broth microdilution MIC, bacterial growth inhibition in Mueller-Hinton broth", "settings": "read-out: MIC (μg/mL)", "experimental": "as §2"}, "[16]": {"system": "T16, S. aureus 215 (LZD^R + cfr)", "T16 construct": "215", "test": "microbe, parasite or virus in culture", "set-up": "Broth microdilution MIC, bacterial growth inhibition in Mueller-Hinton broth", "settings": "Staphylococcus aureus, read-out: MIC (μg/mL)", "experimental": "as §2"}, "[17]": {"system": "T17, Salmonella enterica ATCC 13076", "T17 construct": "ATCC 13076", "test": "microbe, parasite or virus in culture", "set-up": "Broth microdilution MIC, bacterial growth inhibition in Mueller-Hinton broth", "settings": "ATCC13076, read-out: MIC (μg/mL)", "experimental": "as §2"}, "[18]": {"system": "T18, Shigella 1F25-27 (tet(X4))", "T18 construct": "1F25-27 (tet(X4))", "test": "microbe, parasite or virus in culture", "set-up": "Broth microdilution MIC, bacterial growth inhibition in Mueller-Hinton broth", "settings": "read-out: MIC (μg/mL)", "experimental": "as §2"}, "[19]": {"system": "T19, Staphylococcus aureus ATCC 29213", "T19 construct": "ATCC 29213", "test": "microbe, parasite or virus in culture", "set-up": "Broth microdilution MIC, bacterial growth inhibition in Mueller-Hinton broth", "settings": "Staphylococcus aureus, ATCC29213, read-out: MIC (μg/mL)", "experimental": "as §2"}, "[20]": {"system": "T20, Staphylococcus aureus MRSA 1518", "T20 construct": "1518", "test": "microbe, parasite or virus in culture", "set-up": "Broth microdilution MIC, bacterial growth inhibition in Mueller-Hinton broth", "settings": "Staphylococcus aureus, MRSA, read-out: MIC (μg/mL)", "experimental": "as §2"}, "[21]": {"system": "T21, Staphylococcus aureus MRSA T144", "T21 construct": "T144", "test": "microbe, parasite or virus in culture", "set-up": "Broth microdilution MIC, bacterial growth inhibition in Mueller-Hinton broth", "settings": "Staphylococcus aureus, MRSA, read-out: MIC (μg/mL)", "experimental": "as §2"}},
  "note": "Where two headings read alike, the source gives them in different places.",
  "data": [
    {"smiles": "Cc1cn([C@H]2C[C@H](N=[N+]=[N-])[C@@H](CO)O2)c(=O)[nH]c1=O", "note": "[AZI, azidothymidine]", "values": [
      {"measurement": "IC50", "setting": "[1]", "result": 0.106, "unit": "µM"},
      {"measurement": "MIC", "setting": "[2]", "result": "> 32", "unit": "µg/mL"},
      {"measurement": "MIC", "setting": "[3]", "result": 8, "unit": "µg/mL"},
      {"measurement": "MIC", "setting": "[4]", "result": "> 16", "unit": "µg/mL"},
      {"measurement": "MIC", "setting": "[5]; read-out: MIC (μg/mL)", "result": 1, "unit": "µg/mL"},
      {"measurement": "MIC", "setting": "[6]", "result": 0.5, "unit": "µg/mL"},
      {"measurement": "MIC", "setting": "[7]", "result": 1, "unit": "µg/mL"},
      {"measurement": "MIC", "setting": "[8]", "result": "> 16", "unit": "µg/mL"},
      {"measurement": "MIC", "setting": "[9]", "result": 4, "unit": "µg/mL"},
      {"measurement": "MIC", "setting": "[10]", "result": 0.25, "unit": "µg/mL"},
      {"measurement": "MIC", "setting": "[11]", "result": 0.5, "unit": "µg/mL"},
      {"measurement": "MIC", "setting": "[12]", "result": 2, "unit": "µg/mL"},
      {"measurement": "MIC", "setting": "[13]", "result": "> 16", "unit": "µg/mL"},
      {"measurement": "MIC", "setting": "[14]", "result": 2, "unit": "µg/mL"},
      {"measurement": "MIC", "setting": "[15]", "result": 8, "unit": "µg/mL"},
      {"measurement": "MIC", "setting": "[16]", "result": "> 16", "unit": "µg/mL"},
      {"measurement": "MIC", "setting": "[17]", "result": 0.25, "unit": "µg/mL"},
      {"measurement": "MIC", "setting": "[18]", "result": 2, "unit": "µg/mL"},
      {"measurement": "MIC", "setting": "[19]", "result": "> 16", "unit": "µg/mL"},
      {"measurement": "MIC", "setting": "[20]", "result": "> 16", "unit": "µg/mL"},
      {"measurement": "MIC", "setting": "[21]", "result": "> 16", "unit": "µg/mL"}
    ]},
    {"smiles": "CN(C)c1cc(NC(=O)CNC(C)(C)C)c(O)c2c1C[C@H]1C[C@H]3[C@H](N(C)C)C(O)=C(C(N)=O)C(=O)[C@@]3(O)C(O)=C1C2=O", "note": "[Tigecycline]", "values": [
      {"measurement": "MIC", "setting": "[5]; read-out: MHB (MIC, μg/mL)", "result": 32, "unit": "µg/mL"}
    ]}
  ]
}
